Experimental data: patent publication US10987351B2, “RORgamma modulators and uses thereof” (Genfit, priority 2017, dated 2021)

Key:
[1] = biological target: T1, RORγt ligand-binding domain (RORγt-LBD) (Homo sapiens, UniProt P51449); assay: Time-resolved FRET (TR-FRET) RORγt coactivator assay; type: biochemical; conditions: GST-RORγ-LBD, biotinylated RIP140 peptide, 2 hours; read-out: IC50, coactivator-RORγt binding inhibition (TR-FRET)
T1 construct: 20 nM recombinantly expressed RORγ-LBD fused to GST
T1 sequence (P51449 269-508 limits assumed): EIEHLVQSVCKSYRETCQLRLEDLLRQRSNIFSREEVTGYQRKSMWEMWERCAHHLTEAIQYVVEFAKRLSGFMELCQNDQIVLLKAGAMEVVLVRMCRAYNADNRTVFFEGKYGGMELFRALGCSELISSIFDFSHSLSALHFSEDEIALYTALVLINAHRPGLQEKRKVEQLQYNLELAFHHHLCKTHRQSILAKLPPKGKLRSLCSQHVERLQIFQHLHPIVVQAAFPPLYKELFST
Source text: Time-resolved FRET (TR-FRET) RORγt coactivator assay was used to identify RORγ modulator compounds with ligand-dependent coactivator displacement. The assay uses a d2-labeled anti-GST antibody, synthetic N-terminally biotinylated peptide which is derived from nuclear receptor coactivator protein RIP140, and a RORγt ligand-binding domain (RORγt-LBD) that is tagged with glutathione-S-transferase (GST). The influence of compounds on the RORγ-peptide interaction relies on the binding dependent energy transfer from a donor to an acceptor fluorophor attached to the binding partner of interest. […] For reduction of background from compound fluorescence, TR-FRET method makes use of generic fluorophore labels and time resolved detection.
The assays were done in a final volume of 20 μl in a 384 well plate in a CHAPS buffer (2 mM CHAPS; 1 mM DTT, 2 mM EDTA; 0.1% BSA), containing 20 nM recombinantly expressed RORγ-LBD fused to GST, 30 nM N-terminally biotinylated peptide, 1 nM streptavidin-terbium conjugate and 20 nM d2 labeled-anti-GST. Test compounds were diluted using 10 mM stock solution. The range of the final compound concentrations used in this test was from 0.3 nM to 30 μM (logarithmic scale). DMSO content of the samples was kept at 1%. The assay was equilibrated for 2 hours in the dark at room temperature in 384 well plates (Falcon). The signal was detected by an Ultra384 reader (TECAN). […] Compounds that promote coactivator displacement induce a concentration-dependent decrease in time-resolved fluorescent signal. Data were collected and analyzed using GraphPad Prism software (GraphPad Software V5.02, San Diego Calif. USA). IC50 in μM and Emax in % were reported for each compound.

human RORγt [2] = biological target: T2, human RORγt (Homo sapiens, UniProt P51449); assay: IL-17 secretion from EL4 murine lymphoma cells overexpressing human RORγt; type: cell-based; conditions: human RORγt-transfected EL4 cells, PMA and ionomycin stimulation; read-out: IC50, inhibition of IL-17 secretion
T2 sequence (P51449 1-497 isoform P51449-2): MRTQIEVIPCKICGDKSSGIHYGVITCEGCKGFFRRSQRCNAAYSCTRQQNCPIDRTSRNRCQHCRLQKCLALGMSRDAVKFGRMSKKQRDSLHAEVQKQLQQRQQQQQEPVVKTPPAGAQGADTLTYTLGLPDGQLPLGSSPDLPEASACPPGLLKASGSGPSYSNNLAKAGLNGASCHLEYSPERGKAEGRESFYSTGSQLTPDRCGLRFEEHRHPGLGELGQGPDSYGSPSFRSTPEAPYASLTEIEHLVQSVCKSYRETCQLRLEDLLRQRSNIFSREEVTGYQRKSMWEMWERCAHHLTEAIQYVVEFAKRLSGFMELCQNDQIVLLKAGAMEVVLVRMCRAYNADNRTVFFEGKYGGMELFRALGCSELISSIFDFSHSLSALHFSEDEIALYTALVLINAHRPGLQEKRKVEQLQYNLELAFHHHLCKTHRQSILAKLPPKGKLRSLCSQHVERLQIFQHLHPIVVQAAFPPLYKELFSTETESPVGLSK
Experimental: Murine EL-4 lymphoma cell line overexpressing human RORγt was used in this functional assay to assess compound ability to inhibit IL-17 cytokine secretion.
EL-4 cells are maintained in a standard culture medium RPMI supplemented with 10% fetal calf serum, 1% sodium pyruvate, 1% essential amino acids and 1% antibiotics at 37° C. in a humidified atmosphere of 5% CO02 and 95% air. Culture medium was changed every 2 days. EL4 cells were transfected with a plasmid encoding hRORγt (sequence identical to published sequence NM 001001523). […] Briefly, 1 μg of DNA/1 million cells was served to transfect EL-4 cells. Cell/DNA suspension was transferred into certified cuvette and the electroporation of RORγt plasmid was carried out using appropriate Nucleofector® program.
Cells were seeded in 96 well plates at a density of 150000 cells/I well then treated with compounds of this invention at indicated concentrations and incubated for 24 hours at 37° C. in a humidified atmosphere of 5% CO2 and 95% air. EL-4 cells were pretreated with test compounds (RORγ modulators) and stimulated with PMA (10 ng/mL) and ionomycin (1 μM final concentration) in the presence of test compound concentrations for additional 24 h at 37° C. in a humidified atmosphere of 5% CO2 and 95% air. Subsequently, supernatants were collected (after centrifugation at 300 g for 10 minutes) to determine the concentrations of IL-17 by HTRF (CisBio, France) or ELISA (R&D Systems Europe) according to the manufacturer's protocols.

human RORγt [3] = biological target: T2, human RORγt; assay: RORE Luciferase/RORγt transactivation assay; type: cell-based; parameters: the full-length cDNA of human RORγt; V5-His (encoded by the vector); expressed in transfected cells; host or cells: COS-7 (monkey kidney); conditions: COS-7 cells transfected with human IL-17 promoter luciferase reporter and RORγt plasmid, 20 h; read-out: IC50, RORγt activity inhibition (luciferase reporter)
Experimental: It is well known that RORγ binds to a conserved non-coding sequence (CNS) enhancer element in the IL-17 promoter.
Culture medium was changed every 2 days.
The 4.3 Kb human IL-17 promoter containing the RORγ-specific CNS enhancer element was PCR amplified from human genomic DNA and cloned into a pGL3-TKLuc2Cp reporter plasmid.
The luciferase reporter plasmid and the RORγt overexpression plasmid were transfected into COS-7 cell line using 4 μLJetPEI™/μg of DNA. Briefly, 150 ng of DNA (ration 1/2 between RORE-Tk Luc2Cp and cDNA RORγt or the empty vector for the negative control) was served to transfect adherent COS-7 cells in a […] culture flask, in complete medium (see cos-7 cell line culture).
Cells were then detached (using trypsin) and washed by centrifugation at 300 g for 10 minutes. Cell pellet was resuspended in serum free/phenol red free DMEM and seeded in 384 well plates at a density of 10000 cells/well and then incubated for 4 h at 37° C.
Compounds were dissolved in 100% DMSO to obtain 10 mM stock solutions. For each compound, test concentrations were diluted in serum free/phenol red free DMEM using the Genesis Freedom 200™ (TECAN) and added to the cells to obtain a 0.3% DMSO final concentration (in a final volume of 40 μL per well).
The luciferase activity was then measured with 40 μL/well steady-Glo Luciferase assay system (Promega, Madison, Wis.) and after incubation at room temperature for 30 minutes. The luminescence was estimated using the Ultra384 reader (TECAN). Data were collected and analyzed using GraphPad Prism software (GraphPad Software V5.02, San Diego Calif. USA). IC50 in μM and Emax in % were reported for each compound.

[4] = tested on: patients with moderate to severe psoriasis; conditions: cited from earlier work

**Q.** For `COc1ccc(C(NC(=O)Cc2cc(N3CCN(C(C)=O)CC3)ccc2F)c2ccc(C)o2)c(N2CCCCCC2)c1` (centres unmarked) [Cpd.14, 2-[5-(4-acetylpiperazin-1-yl)-2-fluorophenyl]-N-{[2-(azepan-1-yl)-4-methoxyphenyl](5-methylfuran-2-yl)methyl}acetamide], which IC50 [1] is on record?
**A.** < 100 nM

**Q.** What about the IC50 (human RORγt [2]) of the same compound?
**A.** 100 to 1000 nM

**Q.** And the IC50 (human RORγt [3])?
**A.** 100 to 1000 nM

**Q.** Which IC50 [1] does the source give for `CC(=O)N1CCN(c2cccc(CC(=O)NC(c3ccc(C)o3)c3ccc(C)cc3N3CCCCC3)c2)CC1` (centres unmarked) [Cpd.20, 2-[3-(4-acetylpiperazin-1-yl)phenyl]-N-{[4-methyl-2-(piperidin-1-yl)phenyl](5-methylfuran-2-yl)methyl}acetamide] here?
**A.** < 100 nM

**Q.** What about the IC50 (human RORγt [2]) of the same compound?
**A.** < 100 nM

**Q.** And the IC50 (human RORγt [3])?
**A.** < 100 nM

**Q.** What does the source list for `Cc1ccc(C(NC(=O)Cc2cc(N3CCN(S(C)(=O)=O)CC3)ccc2F)c2ccc(C)o2)c(N2CCCCC2)c1` (centres unmarked) [Cpd.16, 2-[2-fluoro-5-(4-methanesulfonylpiperazin-1-yl)phenyl]-N-{[4-methyl-2-(piperidin-1-yl)phenyl](5-methylfuran-2-yl)methyl}acetamide]?
**A.** IC50 [1]: < 100 nM; IC50 (human RORγt [2]): 100 to 1000 nM; IC50 (human RORγt [3]): 100 to 1000 nM

**Q.** What does the source list for `CC(=O)N1CCN(c2ccc(C)c(CC(=O)NC(c3ccccc3)c3ccc(C)cc3N3CCCC3)c2)CC1` (centres unmarked) [Cpd.3, 2-[5-(4-acetylpiperazin-1-yl)-2-methylphenyl]-N-{[4-methyl-2-(pyrrolidin-1-yl)phenyl](phenyl)methyl}acetamide]?
**A.** IC50 [1]: < 100 nM; IC50 (human RORγt [2]): 100 to 1000 nM; IC50 (human RORγt [3]): < 100 nM

**Q.** With `CC(=O)N1CCN(c2ccc(C)c(CC(=O)NC(c3ccc(C)o3)c3ccc(C)cc3N3CCCCC3)c2)CC1` (centres unmarked) [Cpd.10, 2-[5-(4-acetylpiperazin-1-yl)-2-methylphenyl]-N-{[4-methyl-2-(piperidin-1-yl)phenyl](5-methylfuran-2-yl)methyl}acetamide] as the compound, how does the IC50 [1] read?
**A.** < 100 nM

**Q.** What about the IC50 (human RORγt [2]) of the same compound?
**A.** < 100 nM

**Q.** And the IC50 (human RORγt [3])?
**A.** < 100 nM

**Q.** Which results are given for `CC(=O)N1CCN(c2ccc(CC(=O)NC(c3ccccc3)c3ccccc3N3CCCCC3)cc2)CC1` (centres unmarked) [Cpd.1, 2-[4-(4-acetylpiperazin-1-yl)phenyl]-N-{phenyl[2-(piperidin-1-yl)phenyl]methyl}acetamide]?
**A.** IC50 [1]: < 100 nM; IC50 (human RORγt [2]): 100 to 1000 nM; IC50 (human RORγt [3]): 100 to 1000 nM

**Q.** What does the source list for `CC(=O)C1CCN(c2ccc(CC(=O)NC(c3ccc(C)o3)c3ccc(C)cc3N3CCCCC3)cc2)CC1` (centres unmarked) [Cpd.19, 2-[4-(4-acetylpiperidin-1-yl)phenyl]-N-{[4-methyl-2-(piperidin-1-yl)phenyl](5-methylfuran-2-yl)methyl}acetamide]?
**A.** IC50 [1]: < 100 nM; IC50 (human RORγt [2]): 100 to 1000 nM; IC50 (human RORγt [3]): < 100 nM

**Q.** For `CCS(=O)(=O)c1ccc(CNC(=O)c2cnc3c(c2)CN(C[C@H]2CC[C@H](C(F)(F)F)CC2)[C@H]3C(C)C)nc1` [VTP-43742], which “reduction in the Psoriasis Area Severity Index (PASI) score relative to placebo” value ([4]; 350 mg dose group) is on record?
**A.** 24%

**Q.** What about the “placebo-adjusted PASI score reduction” value ([4]; 700 mg dose group) of the same compound?
**A.** 30%

**Q.** What does the source list for `Cc1ccc(C(NC(=O)Cc2ccc(N3CCC(S(C)(=O)=O)CC3)cc2)c2ccc(C)o2)c(N2CCCCC2)c1` (centres unmarked) [Cpd.18, 2-[4-(4-methanesulfonylpiperidin-1-yl)phenyl]-N-{[4-methyl-2-(piperidin-1-yl)phenyl](5-methylfuran-2-yl)methyl}acetamide]?
**A.** IC50 [1]: < 100 nM; IC50 (human RORγt [2]): 100 to 1000 nM; IC50 (human RORγt [3]): < 100 nM

**Q.** For `COc1ccc(C(NC(=O)Cc2cc(N3CCN(C(C)=O)CC3)ccc2C)c2ccc(C)o2)c(N2CCCCCC2)c1` (centres unmarked) [Cpd.11, 2-[5-(4-acetylpiperazin-1-yl)-2-methylphenyl]-N-{[2-(azepan-1-yl)-4-methoxyphenyl](5-methylfuran-2-yl)methyl}acetamide], which IC50 [1] is on record?
**A.** < 100 nM

**Q.** What about the IC50 (human RORγt [2]) of the same compound?
**A.** 100 to 1000 nM

**Q.** And the IC50 (human RORγt [3])?
**A.** 100 to 1000 nM

**Q.** What does the source list for `CC(=O)N1CCN(c2ccc(F)c(CC(=O)NC(c3ccc(C)o3)c3ccc(C)cc3C)c2)CC1` (centres unmarked) [Cpd.12, 2-[5-(4-acetylpiperazin-1-yl)-2-fluorophenyl]-N-[(2,4-dimethylphenyl)(5-methylfuran-2-yl)methyl]acetamide]?
**A.** IC50 [1]: < 100 nM; IC50 (human RORγt [2]): 1000 to 10000 nM; IC50 (human RORγt [3]): 100 to 1000 nM
